The conditions of data set [1]: from patch of Example A; human cadaver epidermis, 37 degree Celsius, seven days.
Data set [2] can be described thus: solubility of THC in aqueous and ionic solutions. Format: physicochemical. An excerpt:
Furthermore, THC is insoluble with many solutions, including aqueous and ionically charged solutions. An application of an ionic aqueous solution to a porous material will hinder the diffusion rate of THC through the material and decrease flux of cannabis. Therefore, an appropriate combination of porous THC absorbing material, combined with a solution that is insoluble with THC, can form a suitable rate control means. An example of such a rate controlling membrane includes mixing salt water with a porous rubber membrane that covers the cavity. The thickness of the porous rubber membrane, the concentration of the salt water, and the amount of available cannabis in the cavity are optimized experimentally to create a desired flux of THC to the patient's skin. Evaporation of necessary fluids may be prevented by a protective backing layer.

The conditions of data set [3]: prior experimentation; cited from earlier work.

Turning to `CCCCCc1cc(O)c2c(c1)OC(C)(C)C1CCC(C)=CC21` (stereo not drawn) [delta 9 THC], the individual cannabinoid flux in data set [1] is 4.5 micrograms per square centimeter per hour. For the compound `CCCCCc1cc(O)c2c(c1)OC(C)(C)C1CC=C(C)CC21` (stereo not drawn) [delta 8 THC], in data set [1], the individual cannabinoid flux is reported as 0.45 micrograms per square centimeter per hour.

Consider `C=C(C)[C@@H]1CCC(C)=C[C@H]1c1c(O)cc(CCCCC)cc1O` [CBD, cannabidiol], for which the individual cannabinoid flux in data set [1] is given as 5.25 micrograms per square centimeter per hour.

In the case of `CCCCCc1cc(O)c2c(c1)OC(C)(C)[C@@H]1CCC(C)=C[C@@H]21` [THC, tetrahydrocannabinol], in data set [2], the “solubility with aqueous and ionically charged solutions” value is reported as “insoluble”. In data set [3], the “diffusion through porous materials such as rubber and plastic” value is reported as “diffuse rapidly”.

Regarding `CCCCCc1cc(O)c2c(c1)OC(C)(C)c1ccc(C)cc1-2` [CBN, cannabinol], the individual cannabinoid flux in data set [1] was 4.8 micrograms per square centimeter per hour.
